IC90 data for six molecules are collected here from US20250179066A1, “ZWITTERIONIC ANTIBACTERIAL COMPOUNDS” (Hoffmann-La Roche Inc., priority 2022, published 2025).

The test has as its system Acinetobacter baumannii ATCC17961. Put plainly: Antimicrobial susceptibility testing: 90% growth inhibitory concentration (IC90) determination. Type of test: cell-based. Conditions: Acinetobacter baumannii, ATCC17961, 16 h, 90% growth inhibitory concentration against Acinetobacter baumannii ATCC17961, Iso-Sensitest broth, OD 600 nm over 16 h; read-out: ATCC 17961 IC90. On the procedure:
The in vitro antimicrobial activity of the compounds was determined according to the following procedure: The assay used a 10-points Iso-Sensitest broth medium to measure quantitatively the in vitro activity of the compounds against Acinetobacter baumannii ATCC17961. Stock compounds in DMSO were serially twofold diluted (e.g. range from 10 to 0.0195 μM final concentration) in 384 wells microtiter plates and inoculated with 49 μL the bacterial suspension in Iso-Sensitest medium to have a final cell concentration of ˜5×10^(5) CFU/mL in a final volume/well of 50 μL/well. Microtiter plates were incubated at 35±2° C. Bacterial cell growth was determined with the measurement of optical density at λ=600 nm each min over a time course of 16 h. Growth inhibition was calculated during the logarithmic growth of the bacterial cells with determination of the concentration inhibiting 50% (IC50) and 90% (IC90) of the growth. Table 1 provides the 90% growth inhibitory concentrations (IC90) in micromoles per liter of the compounds of present invention obtained against the strain Acinetobacter baumannii ATCC17961.
For `Cn1c(-c2cn(-c3ccc(N)cn3)nc2C(F)(F)F)cnc1C(=O)Nc1ccc(C(=O)N2CCN(C(=O)CCC[N+](C)(CCCN)CC(=O)O)CC2)c(Cl)c1` (racemic) [Example 65, rac-3-aminopropyl-[4-[4-[4-[[5-[1-(5-amino-2-pyridyl)-3-(trifluoromethyl)pyrazol-4-yl]-1-methyl-imidazole-2-carbonyl]amino]-2-chloro-benzoyl]piperazino]-4-keto-butyl]-(carboxymethyl)-methyl-ammonium. 1:1 2,2,2-trifluoroacetate], the 90% effect concentration (IC90) is 720 nM. Turning to `Cn1c(-c2cn(-c3ccc(CCN)cn3)nc2C(F)(F)F)cnc1C(=O)Nc1ccc(C(=O)N2CCN(C(=O)C3CC[N+](CC(=O)O)(CC4CNC4)CC3)CC2)c(Cl)c1` (stereo not drawn) [Example 1, 2-[4-[4-[4-[[5-[1-[5-(2-Aminoethyl)-2-pyridyl]-3-(trifluoromethyl)pyrazol-4-yl]-1-methyl-imidazole-2-carbonyl]amino]-2-chloro-benzoyl]piperazine-1-carbonyl]-1-(azetidin-3-ylmethyl)piperidin-1-ium-1-yl]acetic Acid.1:1 2,2,2-trifluoroacetic Acid.1:1 2,2,2-trifluoroacetate], the IC90 came to 330 nM. With `Cn1c(-c2cn(-c3ccc(OCCN)cn3)nc2C(F)(F)F)cnc1C(=O)Nc1ccc(C(=O)N2CCN(C(=O)C3CC[N+](CC(=O)O)(CC4CNC4)CC3)CC2)c(Cl)c1` (stereo not drawn) [Example 2, 2-[4-[4-[4-[[5-[1-[5-(2-aminoethoxy)-2-pyridyl]-3-(trifluoromethyl)pyrazol-4-yl]-1-methyl-imidazole-2-carbonyl]amino]-2-chloro-benzoyl]piperazine-1-carbonyl]-1-(azetidin-3-ylmethyl)piperidin-1-ium-1-yl]acetic acid. 1:1 2,2,2-trifluoroacetic acid. 1:1 2,2,2-trifluoroacetate], the IC90 is 330 nM. As for `Cn1c(-c2cn(-c3ccc(N4CCNCC4)cn3)nc2C(F)(F)F)cnc1C(=O)Nc1ccc(C(=O)N2CCN(C(=O)C3CC[N+](CC(=O)O)(CC4CNC4)CC3)CC2)c(Cl)c1` (stereo not drawn) [Example 3, 2-[1-(azetidin-3-ylmethyl)-4-[4-[2-chloro-4-[[1-methyl-5-[1-(5-piperazino-2-pyridyl)-3-(trifluoromethyl)pyrazol-4-yl]imidazole-2-carbonyl]amino]benzoyl]piperazine-1-carbonyl]piperidin-1-ium-1-yl]acetic acid. 1:1 2,2,2-trifluoroacetic acid. 1:1 2,2,2-trifluoroacetate], the figure is 390 nM; as for `CNCCNc1ccc(-n2cc(-c3cnc(C(=O)Nc4ccc(C(=O)N5CCN(C(=O)C6CC[N+](CC(=O)O)(CC7CNC7)CC6)CC5)c(Cl)c4)n3C)c(C(F)(F)F)n2)nc1` (stereo not drawn) [Example 4, 2-[1-(azetidin-3-ylmethyl)-4-[4-[2-chloro-4-[[1-methyl-5-[1-[5-[2-(methylamino)ethylamino]-2-pyridyl]-3-(trifluoromethyl)pyrazol-4-yl]imidazole-2-carbonyl]amino]benzoyl]piperazine-1-carbonyl]piperidin-1-ium-1-yl]acetic acid. 1:1 2,2,2-trifluoroacetate], 390 nM. Consider `Cn1c(-c2cn(-c3ccc(NCC4CCNCC4)cn3)nc2C(F)(F)F)cnc1C(=O)Nc1ccc(C(=O)N2CCN(C(=O)C3CC[N+](CC(=O)O)(CC4CNC4)CC3)CC2)c(Cl)c1` (stereo not drawn) [Example 5, 2-[1-(azetidin-3-ylmethyl)-4-[4-[2-chloro-4-[[1-methyl-5-[1-[5-(4-piperidylmethylamino)-2-pyridyl]-3-(trifluoromethyl)pyrazol-4-yl]imidazole-2-carbonyl]amino]benzoyl]piperazine-1-carbonyl]piperidin-1-ium-1-yl]acetic acid. 1:1 2,2,2-trifluoroacetate], for which the 90% effect concentration (IC90) was determined as 590 nM.
